Patent US7157241B2, “Serine protease genes related to DPPIV” (Ferring BV, priority 2000, dated 2007)
Square brackets hold non-standard residues; d marks the D form. Peptide text beside a SMILES is read from it. * marks the point of attachment. Sta = CC(C)C[C@H](N)[C@@H](O)CC(=O)O; pNA = O=[N+]([O-])c1ccc(N*)cc1; AMC = Cc1cc(=O)oc2cc(N*)ccc12; Isovaleryl = CC(C)CC(=O)*

How the values were obtained:
Type in all cases: biochemical
[1] = biological target: T1, DPRP-1 (Homo sapiens, UniProt Q6V1X1); assay: Inhibition of DPRP-1 by protease inhibitors (Ala-Pro-AMC fluorescence); conditions: for Residual activity (% of control) DPRP-1: preincubated 30 min at room temperature, Ala-Pro-AMC 100 μM
T1 construct: DNA fragments encoding the full-length polypeptide DPRP-1 were amplified using PCR oligonucleotide primers; made in house; host or cells: PEAK or COS-1 cells, transient transfection
T1 sequence (Q6V1X1 17-898): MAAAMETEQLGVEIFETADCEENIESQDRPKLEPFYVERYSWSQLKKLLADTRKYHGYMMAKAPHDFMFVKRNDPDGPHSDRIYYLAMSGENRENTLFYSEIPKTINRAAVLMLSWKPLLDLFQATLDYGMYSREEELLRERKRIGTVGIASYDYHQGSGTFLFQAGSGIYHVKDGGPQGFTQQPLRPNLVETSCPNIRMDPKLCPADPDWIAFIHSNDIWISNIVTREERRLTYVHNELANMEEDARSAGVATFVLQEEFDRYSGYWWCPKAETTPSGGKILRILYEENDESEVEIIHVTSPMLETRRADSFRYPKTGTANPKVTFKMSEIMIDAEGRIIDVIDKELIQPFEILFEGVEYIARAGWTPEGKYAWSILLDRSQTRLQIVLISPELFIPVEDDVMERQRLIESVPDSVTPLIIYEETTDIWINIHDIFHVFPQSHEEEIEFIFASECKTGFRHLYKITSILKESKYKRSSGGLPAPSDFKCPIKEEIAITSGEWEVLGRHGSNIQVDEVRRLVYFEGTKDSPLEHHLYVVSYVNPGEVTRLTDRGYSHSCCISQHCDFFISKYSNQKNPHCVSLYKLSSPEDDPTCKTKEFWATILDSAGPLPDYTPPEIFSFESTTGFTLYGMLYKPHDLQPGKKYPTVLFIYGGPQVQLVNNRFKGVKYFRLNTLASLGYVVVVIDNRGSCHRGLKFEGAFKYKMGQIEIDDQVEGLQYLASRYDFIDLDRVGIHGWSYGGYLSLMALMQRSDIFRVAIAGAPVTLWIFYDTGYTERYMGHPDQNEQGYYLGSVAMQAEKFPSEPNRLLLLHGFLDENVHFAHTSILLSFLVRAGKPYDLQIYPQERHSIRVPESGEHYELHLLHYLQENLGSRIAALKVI
Description: (§1) The kinetic properties of recombinant DPRP-1 and DPRP-2 were determined in a continuous fluorimetric assay. Buffer, pH and temperature dependence optimization led to the following assay conditions: Enzyme assays were performed in 50 mM PBS, pH7.4 50 μl (50 μg/ml) of purified enzymes were mixed with 1 μl of different concentration of Ala-Pro-AMC (Enzyme Systems). Plates were then incubated at 37° C. for 30 min, and fluorescence was detected using a Wallac 1420 Fluorimeter with λex40355 and λem535.
(§2) The two purified proteases and DPPIV were preincubated with inhibitors at room temperature for 30 min. Substrate, Ala-Pro-AMC (100 μM), was then added, and the fluorescence intensity was recorded as 60 readings during a 60 min period.

[2] = biological target: T2, DPRP-2 (Homo sapiens, UniProt Q86TI2); assay: Inhibition of DPRP-2 by protease inhibitors (Ala-Pro-AMC fluorescence); conditions: for Residual activity (% of control) DPRP-2: preincubated 30 min at room temperature, Ala-Pro-AMC 100 μM
T2 construct: DNA fragments encoding the full length polypeptide DPRP-2 were amplified using PCR oligonucleotide primers; made in house; host or cells: PEAK or COS-1 cells, transient transfection
T2 sequence (Q86TI2 whole entry, the tested form may be a part): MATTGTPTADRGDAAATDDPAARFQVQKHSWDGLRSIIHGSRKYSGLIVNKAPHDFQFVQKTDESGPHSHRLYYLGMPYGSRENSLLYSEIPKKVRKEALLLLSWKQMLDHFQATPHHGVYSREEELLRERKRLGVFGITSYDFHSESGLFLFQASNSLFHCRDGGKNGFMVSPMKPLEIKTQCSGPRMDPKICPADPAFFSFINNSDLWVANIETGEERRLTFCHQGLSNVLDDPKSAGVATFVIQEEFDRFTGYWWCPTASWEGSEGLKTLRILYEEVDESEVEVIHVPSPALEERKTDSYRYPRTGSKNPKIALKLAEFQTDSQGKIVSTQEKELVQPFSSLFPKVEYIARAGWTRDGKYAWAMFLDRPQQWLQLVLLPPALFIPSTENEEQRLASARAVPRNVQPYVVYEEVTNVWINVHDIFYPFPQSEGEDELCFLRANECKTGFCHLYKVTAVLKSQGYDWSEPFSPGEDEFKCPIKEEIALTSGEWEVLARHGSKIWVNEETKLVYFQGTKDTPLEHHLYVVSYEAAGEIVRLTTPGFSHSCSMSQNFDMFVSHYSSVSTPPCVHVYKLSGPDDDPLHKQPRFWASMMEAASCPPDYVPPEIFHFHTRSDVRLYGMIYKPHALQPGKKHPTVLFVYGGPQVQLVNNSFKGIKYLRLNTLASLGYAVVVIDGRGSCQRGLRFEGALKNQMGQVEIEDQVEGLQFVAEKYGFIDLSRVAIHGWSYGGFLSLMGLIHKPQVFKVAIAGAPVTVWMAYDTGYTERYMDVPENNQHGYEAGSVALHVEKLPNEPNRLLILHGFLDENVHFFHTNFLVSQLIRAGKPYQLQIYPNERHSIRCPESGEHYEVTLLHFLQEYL
Description: as §1, §2

[3] = biological target: T3, DPPIV (Homo sapiens, UniProt P27487); assay: Inhibition of DPPIV by protease inhibitors (Ala-Pro-AMC fluorescence); conditions: for Residual activity (% of control) DPPIV: preincubated 30 min at room temperature, Ala-Pro-AMC 100 μM
T3 sequence (P27487 whole entry): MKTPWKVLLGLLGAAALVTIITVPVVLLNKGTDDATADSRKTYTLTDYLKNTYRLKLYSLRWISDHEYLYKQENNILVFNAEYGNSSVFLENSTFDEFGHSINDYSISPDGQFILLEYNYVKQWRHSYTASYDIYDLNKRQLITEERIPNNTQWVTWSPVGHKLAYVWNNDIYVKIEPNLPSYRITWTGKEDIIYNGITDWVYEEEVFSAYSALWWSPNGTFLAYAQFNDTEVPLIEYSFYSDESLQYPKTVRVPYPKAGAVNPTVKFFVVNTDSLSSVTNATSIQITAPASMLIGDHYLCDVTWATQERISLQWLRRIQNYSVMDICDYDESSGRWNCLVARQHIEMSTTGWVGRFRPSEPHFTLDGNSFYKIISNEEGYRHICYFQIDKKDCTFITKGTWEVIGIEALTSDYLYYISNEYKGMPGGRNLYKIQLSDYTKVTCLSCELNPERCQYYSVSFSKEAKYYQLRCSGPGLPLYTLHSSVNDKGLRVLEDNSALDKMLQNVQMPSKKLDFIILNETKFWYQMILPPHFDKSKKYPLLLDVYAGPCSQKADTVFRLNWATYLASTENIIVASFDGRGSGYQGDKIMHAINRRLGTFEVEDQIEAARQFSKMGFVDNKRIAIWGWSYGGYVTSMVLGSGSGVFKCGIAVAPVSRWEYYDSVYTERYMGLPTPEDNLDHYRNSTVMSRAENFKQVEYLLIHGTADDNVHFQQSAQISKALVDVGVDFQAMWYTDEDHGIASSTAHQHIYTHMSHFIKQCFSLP
Description: as §1, §2

[4] = biological target: T1, DPRP-1; assay: Substrate specificity, DPRP-1; conditions: substrate 125 μM, 30-minute incubation with enzyme
Description: (§3) In addition to Ala-Pro-AMC, additional substrates tested also confirmed that DPRP-1 and DPRP-2 are dipeptidyl peptidases. The data were derived by determining the fluorescence change following a 30-minute incubation of the substrates (125 μM) with enzymes as a percentage of the fluorescence measured at Ala-Pro-AMC and Gly-Pro-AMC were the only good substrates among those tested.

[5] = biological target: T2, DPRP-2; assay: Substrate specificity, DPRP-2; conditions: substrate 125 μM, 30-minute incubation with enzyme
Description: as §3

[6] = biological target: T3, DPPIV; assay: Substrate specificity, DPPIV; conditions: substrate 125 μM, 30-minute incubation with enzyme
Description: as §3

[7] = biological target: T1, DPRP-1; assay: Continuous fluorimetric assay, kinetic properties of recombinant DPRP-1; conditions: substrate Ala-Pro-AMC; 50 mM PBS, pH7.4, 37° C., 30 min
Description: as §1

[8] = biological target: T2, DPRP-2; assay: Continuous fluorimetric assay, kinetic properties of recombinant DPRP-2; conditions: substrate Ala-Pro-AMC; 50 mM PBS, pH7.4, 37° C., 30 min
Description: as §1

[9] = protease inhibitor panel of Table 5

## OCCS [B-Mercaptoethonal]
[1]; inhibitor 100 mM
  Residual activity (% of control) DPRP-1: 93.2 % of control
[2]; inhibitor 100 mM
  Residual activity (% of control) DPRP-2: 84.0 % of control
[3]; inhibitor 100 mM
  Residual activity (% of control) DPPIV: 98.0 % of control

## Cc1cc(=O)oc2cc(NC(=O)[C@@H]3CCCN3C(=O)[C@H](C)N)ccc12 [Ala-Pro-AMC] (H-Ala-Pro-{AMC})
[4]
  % Change in Fluorescence at 30 minutes DPRP-1: 239.0%
[5]
  % Change in Fluorescence at 30 minutes DPRP-2: 127.5%
[6]
  % Change in Fluorescence at 30 minutes DPPIV: 379.0%
[7]
  Km: 208 µM
[8]
  Km: 161 µM

## Cc1cc(=O)oc2cc(NC(=O)[C@@H]3CCCN3C(=O)CN)ccc12 [Gly-Pro-AMC] (H-Gly-Pro-{AMC})
[4]
  % Change in Fluorescence at 30 minutes DPRP-1: 341.5%
[5]
  % Change in Fluorescence at 30 minutes DPRP-2: 205.0%
[6]
  % Change in Fluorescence at 30 minutes DPPIV: 444.0%

## O[C@@H](CS)[C@@H](O)CS [DTT]
[1]; inhibitor 2 mM
  Residual activity (% of control) DPRP-1: 100.1 % of control
[2]; inhibitor 2 mM
  Residual activity (% of control) DPRP-2: 94.8 % of control
[3]; inhibitor 2 mM
  Residual activity (% of control) DPPIV: 98.3 % of control

## NCC(=O)N[C@@H](CCCN=C(N)N)C(=O)Nc1ccc([N+](=O)[O-])cc1 [Gly-Arg-pNA] (H-Gly-Arg-pNA)
[4]
  % Change in Fluorescence at 30 minutes DPRP-1: −4.5%
[5]
  % Change in Fluorescence at 30 minutes DPRP-2: −0.5%
[6]
  % Change in Fluorescence at 30 minutes DPPIV: 0.0%

## C[C@H](N)C(=O)N[C@@H](Cc1ccccc1)C(=O)N1CCC[C@H]1C(=O)Nc1ccc([N+](=O)[O-])cc1 [Ala-Phe-Pro-pNA] (H-Ala-Phe-Pro-pNA)
[4]
  % Change in Fluorescence at 30 minutes DPRP-1: −4%
[5]
  % Change in Fluorescence at 30 minutes DPRP-2: −0.5%
[6]
  % Change in Fluorescence at 30 minutes DPPIV: 2.0%

## O=C(O)CN(CCN(CC(=O)O)CC(=O)O)CC(=O)O [EDTA]
[1]; inhibitor 2 mM
  Residual activity (% of control) DPRP-1: 91.5 % of control
[2]; inhibitor 2 mM
  Residual activity (% of control) DPRP-2: 86.0 % of control
[3]; inhibitor 2 mM
  Residual activity (% of control) DPPIV: 93.5 % of control

## CC(C)CC(=O)N[C@H](C(=O)N[C@H](C(=O)N[C@@H](CC(C)C)[C@@H](O)CC(=O)N[C@@H](C)C(=O)N[C@@H](CC(C)C)[C@@H](O)CC(=O)O)C(C)C)C(C)C [Pepstatin] (Isovaleryl-VV[Sta]A[Sta]-OH)
[1]; inhibitor 2 μg/ml
  Residual activity (% of control) DPRP-1: 97.3 % of control
[2]; inhibitor 2 μg/ml
  Residual activity (% of control) DPRP-2: 95.0 % of control
[3]; inhibitor 2 μg/ml
  Residual activity (% of control) DPPIV: 93.5 % of control

## C[C@H](NC(=O)[C@@H](N)CCCCN)C(=O)Nc1ccc([N+](=O)[O-])cc1 [Lys-Ala-pNA] (H-Lys-Ala-pNA)
[4]
  % Change in Fluorescence at 30 minutes DPRP-1: 2.5%
[5]
  % Change in Fluorescence at 30 minutes DPRP-2: 0.5%
[6]
  % Change in Fluorescence at 30 minutes DPPIV: 0.5%

## Aprotinin
[1]; inhibitor 5 μg/ml
  Residual activity (% of control) DPRP-1: 77.5 % of control
[2]; inhibitor 5 μg/ml
  Residual activity (% of control) DPRP-2: 63.2 % of control
[3]; inhibitor 5 μg/ml
  Residual activity (% of control) DPPIV: 80.2 % of control

## O=C(Nc1ccc([N+](=O)[O-])cc1)[C@@H]1CCCN1 [Pro-pNA]
[4]
  % Change in Fluorescence at 30 minutes DPRP-1: −1%
[5]
  % Change in Fluorescence at 30 minutes DPRP-2: −2.5%
[6]
  % Change in Fluorescence at 30 minutes DPPIV: 0.0%

## NCCc1ccc(S(=O)(=O)F)cc1 [AEBSF]
[1]; inhibitor 5 mM
  Residual activity (% of control) DPRP-1: 29.6 % of control
[1]; [9]
  Inhibition of DPRP-1 (in words): strong inhibition
[2]; inhibitor 5 mM
  Residual activity (% of control) DPRP-2: 23.9 % of control
[2]; [9]
  Inhibition of DPRP-2 (in words): strong inhibition
[3]; inhibitor 5 mM
  Residual activity (% of control) DPPIV: 21.1 % of control
[3]; [9]
  Inhibition of DPPIV (in words): strong inhibition

## C[C@H](N)C(=O)N1CCC[C@H]1C(=O)Nc1ccc([N+](=O)[O-])cc1 [Ala-Pro-pNA] (H-Ala-Pro-pNA)
[4]
  % Change in Fluorescence at 30 minutes DPRP-1: 45.5%
[5]
  % Change in Fluorescence at 30 minutes DPRP-2: 44.0%
[6]
  % Change in Fluorescence at 30 minutes DPPIV: 29.5%

## CC(=O)N[C@@H](CC(C)C)C(=O)N[C@@H](CC(C)C)C(=O)N[C@H](C=O)CCCNC(=N)N [Leupeptin]
[1]; inhibitor 50 μg/ml
  Residual activity (% of control) DPRP-1: 91.1 % of control
[2]; inhibitor 50 μg/ml
  Residual activity (% of control) DPRP-2: 90.4 % of control
[3]; inhibitor 50 μg/ml
  Residual activity (% of control) DPPIV: 90.7 % of control
